Legend:
Type in all cases: in vivo
[1] = test system: Echinochloa crus-galli var. formosensis; test: Test Example 2: herbicidal effect test by application during growth period of paddy rice; conditions: 120 g per 10 ares, applied seven days after sowing, flooded pots, 14 days after application; for inhibition at 1200 g/ha: Echinochloa crus-galli, read-out: weed inhibition rate
Method in brief: (§1)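 Paddy soil in Wagner pots was puddled with N:P:K 16:16:16 fertilizer, sown with 30 weed seeds per species at 0–1 cm and flooded to about 3 cm. Seven days after sowing, a water-diluted emulsifiable concentrate was dropped onto the water at 120 g active ingredient per 10 ares. Weed inhibition (%) was scored at 14 days, in duplicate.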

Amaranthus viridis = test: Test Example 3: herbicidal effect test by soil application in upland field; conditions: Amaranthus viridis, 120 g per 10 ares, sprayed one day after sowing, 14 days after application, read-out: weed inhibition rate
Method in brief: (§2)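 Pre-emergence test: seeds mixed into top 1 cm of alluvial loam upland soil in pots; emulsifiable concentrate diluted in water sprayed on soil one day after sowing at 100 L/10 a, 120 g a.i./10 a. Weed inhibition rate (%) scored at 14 days, in duplicate.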

Monochoria vaginalis [2] = test: Test Example 2: herbicidal effect test by application during growth period of paddy rice; conditions: 120 g per 10 ares, applied seven days after sowing, flooded pots, 14 days after application; for inhibition at 1200 g/ha: Pontederia vaginalis, read-out: weed inhibition rate
Method in brief: as §1

Scirpus juncoides [3] = test: as above; conditions: 120 g per 10 ares, applied seven days after sowing, flooded pots, 14 days after application; for inhibition at 1200 g/ha: Schoenoplectiella juncoides, read-out: weed inhibition rate
Method in brief: as §1

Echinochloa crus-galli [4] = test: Test Example 4: herbicidal effect test by stem and leaf treatment in upland field; conditions: 120 g per 10 ares, sprayed seven days after sowing, upland soil, 14 days after application; for inhibition at 1200 g/ha: Echinochloa crus-galli, read-out: weed inhibition rate
[5] = test system: Echinochloa crus-galli var. formosensis; test: Test Example 5: herbicidal effect test by soil application in paddy rice (low dose); conditions: 7.5 g per 10 ares, applied immediately after sowing, flooded pots, 14 days after application; for inhibition at 75 g/ha: Echinochloa crus-galli, soil, 336 h, read-out: weed inhibition rate
Method in brief: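 Paddy soil in Wagner pots was fertilized (N:P:K 16:16:16), puddled, sown with 30 seeds per weed species at 0–1 cm, then flooded to ~3 cm in a glass greenhouse. Emulsifiable concentrate diluted in water was dropper-applied into floodwater immediately, at 7.5 g active ingredient per 10 ares; duplicates, scored at 14 days.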

Digitaria ciliaris [6] = test: Test Example 4: herbicidal effect test by stem and leaf treatment in upland field; conditions: 120 g per 10 ares, sprayed seven days after sowing, upland soil, 14 days after application; for inhibition at 1200 g/ha: Digitaria ciliaris, read-out: weed inhibition rate
[7] = test system: Echinochloa crus-galli var. formosensis; test: Test Example 1: herbicidal effect test by soil application in paddy rice; conditions: 120 g active ingredient per 10 ares, applied immediately after sowing, flooded pots, 14 days after application; for pest or weed control at 1200 g/ha: Echinochloa crus-galli, soil, 336 h, read-out: weed inhibition rate
Method in brief: (§3)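 Paddy soil in Wagner pots (1/10,000 acre), fertilized and puddled; 30 seeds per species sown at 0–1 cm, flooded to ~3 cm, greenhouse. Water-diluted emulsifiable concentrate dropped onto flooded pots right after sowing at 120 g active ingredient per 10 ares.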

Scirpus juncoides [8] = test: as above; conditions: 120 g active ingredient per 10 ares, applied immediately after sowing, flooded pots, 14 days after application; for pest or weed control at 1200 g/ha: Schoenoplectiella juncoides, soil, 336 h, read-out: weed inhibition rate
Method in brief: as §3

[9] = test system: Echinochloa crus-galli var. formosensis; test: Test Example 6: herbicidal effect test by application during growth period of paddy rice (low dose); conditions: 7.5 g per 10 ares, applied seven days after sowing, flooded pots, 14 days after application; for inhibition at 75 g/ha: Echinochloa crus-galli, read-out: weed inhibition rate
Method in brief: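 Paddy soil in flooded Wagner pots (about 3 cm water), weeds sown at 0–1 cm, 30 seeds each, grown in a glass greenhouse. Seven days after sowing, water-diluted emulsifiable concentrate was dropped into the water at 7.5 g active ingredient per 10 ares. Weed inhibition rate (%) was scored 14 days after application, in duplicate.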

Monochoria vaginalis [10] = test: Test Example 1: herbicidal effect test by soil application in paddy rice; conditions: 120 g active ingredient per 10 ares, applied immediately after sowing, flooded pots, 14 days after application; for pest or weed control at 1200 g/ha: Pontederia vaginalis, soil, 336 h, read-out: weed inhibition rate
Description: (§4) Wagner pots with an area of […] were filled with paddy soil, followed by addition of water and incorporation of chemical fertilizer (N:P:K = 16:16:16), after which puddling was performed. After that, seeds of Echinochloa crus-galli var. formosensis, broad-leaved weeds (Lindernia pyxidaria and Monochoria vaginalis), and Scirpus juncoides were sown at a depth of 0 cm to 1 cm, 30 seeds each. Immediately after sowing, the pots were flooded and a water depth of approximately 3 cm was maintained. Subsequent management was conducted in a glass greenhouse. Immediately thereafter, an emulsifiable concentrate prepared according to Formulation Example 5 using the compound shown below was diluted with water, and a specified amount of the diluted solution was applied by dropper. The amount of the active ingredient to be applied was equivalent to 120 g per 10 ares.
(§5) The present test was conducted in duplicate for each chemical concentration group, and the weed inhibition rate (%) was determined 14 days after chemical application using the following formula (Math. 1). [formula]

Echinochloa crus-galli [11] = test: Test Example 3: herbicidal effect test by soil application in upland field; conditions: 120 g per 10 ares, sprayed one day after sowing, 14 days after application; for inhibition at 1200 g/ha: Echinochloa crus-galli, read-out: weed inhibition rate
Method in brief: as §2

Scirpus juncoides [12] = test: Test Example 5: herbicidal effect test by soil application in paddy rice (low dose); conditions: Schoenoplectiella juncoides, 336 h, 7.5 g per 10 ares, applied immediately after sowing, flooded pots, 14 days after application, read-out: weed inhibition rate
Description: as §5
as §4, with “(Monochoria” for “(Lindernia pyxidaria and Monochoria”, “7.5” for “120”
The present test was conducted in duplicate for each chemical concentration group, and the herbicidal effect was evaluated 14 days after chemical application using the same criteria as in Test Example 1.

Echinochloa crus-galli [13] = test: Test Example 7: herbicidal effect test by soil application in upland field (low dose); conditions: 7.5 g per 10 ares, sprayed one day after sowing, 14 days after application
Method in brief: (§6)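 Pre-emergence soil application: upland alluvial loam pots sown with weed seeds mixed into the top 1 cm; one day after sowing, a water-diluted emulsifiable concentrate was sprayed on the soil at 100 L per 10 a, delivering 7.5 g active ingredient per 10 a. Weed inhibition rate (%) scored 14 days after application, duplicate pots.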

Digitaria ciliaris [14] = test: as above; conditions: 7.5 g per 10 ares, sprayed one day after sowing, 14 days after application
Method in brief: as §6

Digitaria ciliaris [15] = test: Test Example 3: herbicidal effect test by soil application in upland field; conditions: 120 g per 10 ares, sprayed one day after sowing, 14 days after application; for inhibition at 1200 g/ha: Digitaria ciliaris, read-out: weed inhibition rate
Method in brief: as §2

Echinochloa crus-galli [16] = test: Test Example 8: herbicidal effect test by stem and leaf treatment in upland field (low dose); conditions: 7.5 g per 10 ares; sprayed seven days after sowing, upland soil; 14 days after application
Digitaria ciliaris [17] = test: as above; conditions: 7.5 g per 10 ares, sprayed seven days after sowing, upland soil, 14 days after application

COc1ccc(CO[C@@H]2C[C@]3(C(C)C)O[C@@]2(C)CC3=O)cc1 [2-346, (1R,4S,5R)-1-isopropyl-5-((4-methoxybenzyl)oxy)-4-methyl-7-oxabicyclo[2.2.1]heptan-2-one]
≥ 80%: inhibition at 1200 g/ha [1] | inhibition at 1200 g/ha (Amaranthus viridis)

CC(C)[C@]12C[C@@H](OCc3ccccc3F)[C@](C)(CC1C1CCCC1)O2 (stereo partly drawn) [1-920, (1R,4S,5R)-2-cyclopentyl-5-[(2-fluorobenzyl)oxy]-1-isopropyl-4-methyl-7-oxabicyclo[2.2.1]heptane]
≥ 80%: inhibition at 1200 g/ha [1] | inhibition at 1200 g/ha (Monochoria vaginalis [2]) | inhibition at 1200 g/ha (Scirpus juncoides [3]) | inhibition at 1200 g/ha (Echinochloa crus-galli [4]) | inhibition at 75 g/ha [5] | inhibition at 1200 g/ha (Digitaria ciliaris [6]) | pest or weed control at 1200 g/ha [7] | pest or weed control at 1200 g/ha (Scirpus juncoides [8]) | inhibition at 75 g/ha [9] | pest or weed control at 1200 g/ha (Monochoria vaginalis [10])

CC(C)[C@]12C[C@@H](OCCOCc3ccccc3)[C@](C)(C[C@@H]1Br)O2 [1-725, (1S,2R,4R,5S)-5-bromo-1-methyl-2-(2-phenylmethoxyethoxy)-4-isopropyl-7-oxabicyclo[2.2.1]heptane]
≥ 80%: inhibition at 1200 g/ha [1] | inhibition at 1200 g/ha (Echinochloa crus-galli [4]) | inhibition at 1200 g/ha (Amaranthus viridis)

CC(C)[C@]12C[C@@H](OCc3ccccc3F)[C@](C)(CC1c1cccc(F)c1)O2 (stereo partly drawn) [1-923, (1S,2R,4R)-2-((2-fluorobenzyl)oxy)-5-(3-fluorophenyl)-4-isopropyl-1-methyl-7-oxabicyclo[2.2.1]heptane]
≥ 80%: inhibition at 1200 g/ha [1] | inhibition at 1200 g/ha (Echinochloa crus-galli [4]) | inhibition at 1200 g/ha (Echinochloa crus-galli [11]) | inhibition at 75 g/ha (Scirpus juncoides [12]) | pest or weed control at 1200 g/ha [7] | pest or weed control at 1200 g/ha (Scirpus juncoides [8])

CC(C)[C@]12C[C@@H](OCc3ccccc3F)[C@](C)(C[C@@H]1Cl)O2 [1-12]
≥ 80%: weed inhibition rate (Echinochloa crus-galli [13]) | weed inhibition rate (Digitaria ciliaris [14]) | weed inhibition rate [1] | weed inhibition rate (Monochoria vaginalis [2]) | weed inhibition rate (Scirpus juncoides [3]) | weed inhibition rate (Echinochloa crus-galli [4]) | weed inhibition rate (Echinochloa crus-galli [11]) | weed inhibition rate (Digitaria ciliaris [15]) | weed inhibition rate [5] | weed inhibition rate (Digitaria ciliaris [6]) | weed inhibition rate [7] | weed inhibition rate (Scirpus juncoides [8]) | weed inhibition rate (Echinochloa crus-galli [16]) | weed inhibition rate (Digitaria ciliaris [17]) | weed inhibition rate [9] | weed inhibition rate (Monochoria vaginalis [10])

CC(C)[C@]12C[C@@H](OCc3ccccc3F)[C@](C)(CC1CCc1ccccc1)O2 (stereo partly drawn) [1-929, (1S,2R,4R)-2-((2-fluorobenzyl)oxy)-4-isopropyl-1-methyl-5-phenethyl-7-oxabicyclo[2.2.1]heptane]
≥ 80%: inhibition at 1200 g/ha [1] | inhibition at 1200 g/ha (Monochoria vaginalis [2]) | inhibition at 1200 g/ha (Echinochloa crus-galli [4]) | inhibition at 1200 g/ha (Echinochloa crus-galli [11]) | inhibition at 1200 g/ha (Digitaria ciliaris [15]) | inhibition at 75 g/ha [5] | inhibition at 1200 g/ha (Digitaria ciliaris [6]) | pest or weed control at 1200 g/ha [7] | pest or weed control at 1200 g/ha (Scirpus juncoides [8]) | inhibition at 75 g/ha (Digitaria ciliaris [17]; Digitaria ciliaris, read-out: weed inhibition rate) | inhibition at 75 g/ha [9] | pest or weed control at 1200 g/ha (Monochoria vaginalis [10])

CCC[C@@H]1C[C@]2(C)O[C@@]1(C(C)C)C[C@H]2OCc1ccccc1F [1-914, (1S,2R,4R,5R)-2-[(2-fluorophenyl)methoxy]-1-methyl-4-isopropyl-5-propyl-7-oxabicyclo[2.2.1]heptane]
≥ 80%: inhibition at 1200 g/ha [1] | inhibition at 1200 g/ha (Monochoria vaginalis [2]) | inhibition at 1200 g/ha (Scirpus juncoides [3]) | inhibition at 1200 g/ha (Echinochloa crus-galli [4]) | inhibition at 1200 g/ha (Echinochloa crus-galli [11]) | inhibition at 1200 g/ha (Digitaria ciliaris [15]) | inhibition at 75 g/ha [5] | inhibition at 1200 g/ha (Digitaria ciliaris [6]) | pest or weed control at 1200 g/ha [7] | pest or weed control at 1200 g/ha (Scirpus juncoides [8]) | inhibition at 75 g/ha [9] | pest or weed control at 1200 g/ha (Monochoria vaginalis [10])
